From patent US20260217708A1, “FUSED BENZAZEPINE DERIVATIVES FOR USE IN THE TREATMENT OF CANCER AND EPILEPSY” (UCB BIOPHARMA SRL, priority 2023, published 2026)

Legend:
system Xc^− [1] = molecular target: T1, system Xc^− (Homo sapiens, UniProt Q9UPY5); details: background statement, no data given; cited from earlier work
T1 sequence (Q9UPY5 1-501): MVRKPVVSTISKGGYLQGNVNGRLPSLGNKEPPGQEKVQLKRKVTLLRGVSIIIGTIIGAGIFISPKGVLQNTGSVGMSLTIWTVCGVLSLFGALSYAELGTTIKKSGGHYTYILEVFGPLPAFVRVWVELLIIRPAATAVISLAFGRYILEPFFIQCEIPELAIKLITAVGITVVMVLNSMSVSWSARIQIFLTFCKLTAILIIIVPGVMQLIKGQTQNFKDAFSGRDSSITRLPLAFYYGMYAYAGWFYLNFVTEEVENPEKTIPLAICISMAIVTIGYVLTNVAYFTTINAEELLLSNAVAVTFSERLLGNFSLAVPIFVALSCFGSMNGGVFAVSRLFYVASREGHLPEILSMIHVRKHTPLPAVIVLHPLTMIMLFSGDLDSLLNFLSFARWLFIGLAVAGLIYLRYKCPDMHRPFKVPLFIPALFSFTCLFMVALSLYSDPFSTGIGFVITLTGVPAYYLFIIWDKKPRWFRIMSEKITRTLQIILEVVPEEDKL
T1 sequence (P08195 1-529 partner): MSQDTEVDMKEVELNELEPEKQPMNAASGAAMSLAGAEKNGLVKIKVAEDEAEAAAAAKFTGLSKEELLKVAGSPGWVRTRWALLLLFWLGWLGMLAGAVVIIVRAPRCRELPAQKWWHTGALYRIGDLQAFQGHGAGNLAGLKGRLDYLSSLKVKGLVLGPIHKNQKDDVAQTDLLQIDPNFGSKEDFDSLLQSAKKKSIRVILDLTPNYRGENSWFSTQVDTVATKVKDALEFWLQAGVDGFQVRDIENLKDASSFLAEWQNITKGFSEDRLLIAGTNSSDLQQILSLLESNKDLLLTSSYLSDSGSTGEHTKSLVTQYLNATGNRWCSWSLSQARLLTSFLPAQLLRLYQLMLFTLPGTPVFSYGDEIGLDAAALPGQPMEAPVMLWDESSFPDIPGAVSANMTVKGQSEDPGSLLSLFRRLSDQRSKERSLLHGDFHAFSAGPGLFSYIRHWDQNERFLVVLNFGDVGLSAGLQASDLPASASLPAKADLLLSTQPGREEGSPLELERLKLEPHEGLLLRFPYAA

system Xc^− [2] = molecular target: T1, system Xc^−; assay: [^14C]L-Cystine uptake assay; type: cell-based; parameters: endogenous in cells; host or cells: H4 cells; details: H4 cells, sodium-free HEPES buffer, 0.5 μM L-[14C]Cystine and 4.5 μM L-Cystine, 1 hour at 37° C.; read-out: pIC50 [^14C] L-Cystine uptake assay (converted)
Outline: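 H4 cells at 5×10^4 cells/well in sodium-free HEPES buffer were preincubated 15 min with compounds (1% DMSO). Uptake of 0.5 μM [14C]L-cystine plus 4.5 μM unlabelled L-cystine ran 1 hour at 37° C on scintillating plates. IC50 was set between 1% DMSO and 50 μM Erastin controls and expressed as pIC50.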

system Xc^− [3] = molecular target: T1, system Xc^−; assay: Cystine-induced glutamate release assay; type: cell-based; parameters: endogenous in cells; host or cells: H4 cells; details: H4 cells, sodium-free HEPES buffer, 50 μM L-Cystine, 2 hours, Amplex Red glutamate readout; read-out: pIC50 Cystine-induced glutamate release assay (converted)
Outline: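 H4 cells in sodium-free HEPES buffer (pH 7.4), 2 days after plating; glutamate release induced with 50 μM L-cystine plus compound (1% DMSO), 2 h at 37 °C. Supernatant glutamate measured by Amplex Red fluorescence; IC50/pIC50 derived between 1% DMSO and 50 μM erastin controls.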

| Structure (SMILES) | inhibition of the System Xc− antiporter (system Xc^− [1]) | potency on human System Xc− function (system Xc^− [1]) | IC50 (system Xc^− [2]) [nM] | IC50 (system Xc^− [3]) [nM] |
| --- | --- | --- | --- | --- |
| O=C(O)c1cc(/N=N/c2ccc(S(=O)(=O)Nc3ccccn3)cc2)ccc1O [Sulfasalazine] | non-selective inhibitor | low |  |  |
| Cc1cc2c(c(F)n1)-c1cccnc1[C@@H](C)C(=O)N2CC(=O)Nc1ccc(C(C)C)c(F)c1 [#244, 2-[(10R)-3-fluoro-5,10-dimethyl-9-oxo-4,8,12-triazatricyclo[9.4.0.0^2,7]pentadeca-1(11),2(7),3,5,12,14-hexaen-8-yl]-N-(3-fluoro-4-isopropyl-phenyl)acetamide] |  |  | 15.8 to 39.8 | 15.8 to 39.8 |
| CC1C(=O)N(CC(=O)Nc2ccc(Cl)c(F)c2)c2ccn(C(F)F)c(=O)c2-c2cccnc21 (centres unmarked) [#366, N-(4-chloro-3-fluoro-phenyl)-2-[4-(difluoromethyl)-10-methyl-3,9-dioxo-4,8,12-triazatricyclo[9.4.0.0^2,7]pentadeca-1(15),2(7),5,11,13-pentaen-8-yl]acetamide] |  |  | 39.8 to 100 | 39.8 to 100 |
| Cc1cc2c(c(F)n1)-c1cc(F)cnc1C(C)C(=O)N2CC(=O)Nc1ccc(C(F)F)cc1 (single isomer, unassigned) [#261, N-[4-(difluoromethyl)phenyl]-2-[3,14-difluoro-5,10-dimethyl-9-oxo-4,8,12-triazatricyclo[9.4.0.0^2,7]pentadeca-1(11),2(7),3,5,12,14-hexaen-8-yl]acetamide] |  |  | < 15.8 | < 15.8 |
| COc1nc(C)cc2c1-c1cncnc1C(C)C(=O)N2CC(=O)Nc1ccc(C(F)(F)F)cc1 (centres unmarked) [#157, 2-(15-methoxy-8,13-dimethyl-9-oxo-4,6,10,14-tetrazatricyclo[9.4.0.0^2,7]pentadeca-1(11),2(7),3,5,12,14-hexaen-10-yl)-N-[4-(trifluoromethyl)phenyl]acetamide] |  |  | < 15.8 | 15.8 to 39.8 |
| Cc1cc2c(cn1)-c1ncccc1C(C)C(=O)N2CC(=O)Nc1ccc(Cl)c(F)c1 (single isomer, unassigned) [#407, N-(4-chloro-3-fluoro-phenyl)-2-[8,13-dimethyl-9-oxo-3,10,14-triazatricyclo[9.4.0.0^2,7]pentadeca-1(15),2,4,6,11,13-hexaen-10-yl]acetamide] |  |  | 39.8 to 100 | 39.8 to 100 |
| CC1C(=O)N(CC(=O)Nc2ccc(C(F)F)cc2)c2cc(OC3CN(C)C3)nc(F)c2-c2cccnc21 (centres unmarked) [#378, N-[4-(difluoromethyl)phenyl]-2-[3-fluoro-10-methyl-5-(1-methylazetidin-3-yl)oxy-9-oxo-4,8,12-triazatricyclo[9.4.0.0^2,7]pentadeca-1(15),2,4,6,11,13-hexaen-8-yl]acetamide] |  |  | 39.8 to 100 | 15.8 to 39.8 |
| Cc1cc2c(c(F)n1)-c1ccnn1C(C)C(=O)N2CC(=O)Nc1ccc(C(F)F)cc1 (single isomer, unassigned) [#221, Enantiomer (7S) or (7R) of N-[4-(difluoromethyl)phenyl]-2-[14-fluoro-7,12-dimethyl-8-oxo-5,6,9,13-tetrazatricyclo[8.4.0.0^2,6]tetradeca-1(14),2,4,10,12-pentaen-9-yl]acetamide] |  |  | 100 to 501 | 39.8 to 100 |
| Cc1cc2c(c(C#N)n1)-c1ncccc1CC(=O)N2CC(=O)Nc1ccc(C(F)(F)F)cc1 [#392, 2-(15-cyano-13-methyl-9-oxo-3,10,14-triazatricyclo[9.4.0.0^2,7]pentadeca-1(11),2,4,6,12,14-hexaen-10-yl)-N-[4-(trifluoromethyl)phenyl]acetamide] |  |  | 15.8 to 39.8 | 39.8 to 100 |
| CCn1c(C)cc2c(c1=O)-c1cccnc1CC(=O)N2CC(=O)Nc1ccc(C(F)(F)F)cc1 [#125, 2-(4-ethyl-5-methyl-3,9-dioxo-4,8,12-triazatricyclo[9.4.0.0^2,7]pentadeca-1(15),2(7),5,11,13-pentaen-8-yl)-N-[4-(trifluoromethyl)phenyl]acetamide] |  |  | 39.8 to 100 | 39.8 to 100 |
